pIC50: −log10 of the molar value. Activity calls are given as the source filed them. No rule for the calls is given here.
System: CHOP reporter cell assay, percent of control
Test: CHOP reporter inhibitor potency, dose response, cell-based (AID 504322);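 also: CHO cells carrying a CHOP reporter stimulated with tunicamycin to induce ER stress; potency is for inhibition of the stress-induced reporter signal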

Compound	IC50	pIC50
Cc1ccc2nc(NC(=O)CSCC(=O)OCC(=O)c3ccc(Br)cc3)sc2c1	5.35 µM (inactive)	
O=S(=O)(Nc1cc(Sc2cccc3cccnc23)c(O)c2ccccc12)c1ccc(F)cc1		5.57
COc1ccc(C(=O)/C=C/C(=O)N(CC(=O)NC2CCCCC2)Cc2ccc(F)cc2)c(O)c1		5.67
CCNc1nc(Oc2c(Cl)cccc2Cl)cc(C(F)(F)F)n1		5.56
Cc1ccc(-n2c(Cl)c(Cl)nc(Cl)c2=O)cc1		5.98
Cc1cccnc1NC(=O)c1c(O)c2ccccc2n(C)c1=O	> 10 µM (inactive)	
O=C(c1ccc2c3c(cccc13)C(=O)N(O)C2=O)N1CCCCC1		5.72
O=C(OCn1ncc(Cl)c(Cl)c1=O)c1ccc(C(F)(F)F)cc1	9.59 µM (inactive)	
Cc1ccc2c(c1)c1c(n2CC(O)Cn2c(C)nc3ccccc32)CCCC1 (centres undefined)	6.68 µM (inactive)	
CC1=C/C(=N\OS(=O)(=O)c2ccccc2)C=CC1=O		5.84
Cc1ccc(/C=C2\SC(=S)N(CCCC(=O)Nc3ccc(O)cc3)C2=O)cc1		6.77
Oc1cccc(-c2nc3c4c(ncn3n2)-c2ccccc2CC42CCCC2)c1	5.25 µM (inactive)	
O=C(NCCNC(=O)c1cc(OCC(F)(F)F)ccc1OCC(F)(F)F)Nc1cccc(C(F)(F)F)c1		5.59
O=[N+]([O-])c1ccc(COc2ccc(-c3[nH]ncc3-c3ccccc3)c(O)c2)cc1	9.61 µM (inactive)	
C=C1C(=O)O[C@@H]2C[C@@H](C)[C@@H]3C4OC4C(=O)[C@@]3(C)[C@@H](O)[C@H]12 (some centres undefined)	9.5 µM (inactive)	
COc1cc(/C=C/c2nc(N)nc(-c3ccccc3O)n2)cc(OC)c1OC	> 10 µM (inactive)	
O=C(NC(c1ccccc1)c1cc(Cl)c2cccnc2c1O)c1cccnc1 (centres undefined)		5.47
O=S(=O)(N/N=C/c1ccc(Cl)cc1)c1ccc(Cc2ncc(C(F)(F)F)cc2Cl)s1	6.37 µM (inactive)	
COc1cc(/C=C(\C#N)c2nc3ccccc3[nH]2)cc(Br)c1OCc1ccc(F)cc1	6.3 µM (inactive)	
CCCCCC1CC(CC(=O)Nc2ccc([N+](=O)[O-])cc2)C(=O)O1 (centres undefined)	9.17 µM (inactive)	
O=S(=O)(/C(=C/c1ccc(C(F)(F)F)cc1)c1nc2ccccc2[nH]1)c1ccccc1	5.46 µM (inactive)	
O=C(Nc1ccccc1Cl)c1ccccc1Oc1ccc(C(F)(F)F)cc1[N+](=O)[O-]	6.53 µM (inactive)	
CC1=C(C)/C(=N\OS(=O)(=O)c2ccc(C)cc2)C=CC1=O	3.68 µM (inactive)	
Cc1cc(C)n(-c2nc(Nc3ccccc3C(F)(F)F)nc(-n3nc(C)cc3C)n2)n1	3.93 µM (inactive)	

Compound	IC50	pIC50
CCOc1cc(/C=C2/C(=O)ON=C2C)ccc1OCc1ccc(F)cc1	9.5 µM (inactive)	
CCCCCCCCCCCCCCCC[n+]1ccc(/C=N/O)cc1		5.51
CC(C)COc1ccc(/C(=N/O)c2ccccc2)cc1	5.73 µM (inactive)	
CSc1nc(-c2ccccc2)nc(C(Cl)Cl)n1		5.29
COc1ccc(C(=O)NC(=O)Nc2cc(C)ccn2)cc1	9.99 µM (inactive)	
NC(=O)CC(NC(=O)Cc1cccc2ccccc12)c1ccc(NCCOc2ccccc2)c([N+](=O)[O-])c1 (centres undefined)	8.33 µM (inactive)	
Nc1cccc(Nc2nc(OC(C(F)(F)F)C(F)(F)F)nc(OC(C(F)(F)F)C(F)(F)F)n2)c1	3.09 µM (inactive)	
CC(C)c1ccc(C2C3CSCC=C3C(C#N)=C(N)C2(C#N)C#N)cc1 (centres undefined)	9.55 µM (inactive)	
CCOc1cc(/C=N/NC(=O)Cc2ccc(C(F)(F)F)cc2[N+](=O)[O-])c(Br)cc1OC		5.34
O=C1CC(c2ccccc2Cl)CC(O)=C1C=Nc1ccccc1 (centres undefined)	6.54 µM (inactive)	
CCCC(=O)OCCNc1cc(Sc2nc3ccccc3[nH]2)c2nonc2c1[N+](=O)[O-]	5.35 µM (inactive)	
CCOc1ccc(-c2nc(CSCC(=O)NCc3ccco3)c(C)o2)cc1		> 6.80
CCCCCc1ccc(OCCOCCn2c[n+](C)c3ccccc32)c(CCCCC)c1		5.45
CC(C)(C)C(=O)c1no[n+]([O-])c1/C(=N/O)C(C)(C)C	7.23 µM (inactive)	
O=C(ONc1ccc(N=NC(=O)c2ccccc2O)cc1)c1ccccc1	> 10 µM (inactive)	
COC(=O)c1ccc2c(c1)C(C)(C)C(/C=C/c1ccc(OC)c(OC)c1OC)=[N+]2C	9.48 µM (inactive)	
O=C(CCCOc1ccc(Cl)cc1Cl)N/N=C\C1CCCCC1	5.03 µM (inactive)	
CCC(C)[C@@H](NC(=O)OC(C)(C)C)c1nnc(S(=O)(=O)Cc2cccc(C)c2)o1 (some centres undefined)		5.32
COc1ccc([C@H]2Oc3cc(O)cc(O)c3C(=O)C2[C@@H]2C(=O)c3c(O)cc(O)cc3O[C@@H]2c2ccc(OC)cc2)cc1 (some centres undefined)	> 10 µM (inactive)	
O=C(/C=C/c1cccc([N+](=O)[O-])c1)n1cnc2ccccc21	5.36 µM (inactive)	
COC(=O)c1sc(-c2ccc(C(C)(C)C)cc2)cc1NC(=O)c1ccccc1C(=O)O	8.29 µM (inactive)	
Cc1ccc(NP(=O)(Oc2ccccc2F)Oc2ccccc2F)cc1	5.26 µM (inactive)	
C[C@H](NC(=O)c1nc[nH]c1C(=O)N[C@@H](Cc1ccccc1)C(=O)OC(C)(C)C)C(=O)OC(C)(C)C	5.25 µM (inactive)	
COc1ccc(/C=N\NC(=O)COc2ccc(C(C)(C)C)cc2)cc1Cn1nc(C)cc1C		5.52

Compound	IC50	pIC50
O=[N+]([O-])c1c(NCCCO)cc(Sc2ccc(Cl)cc2)c2nonc12		5.33
Cc1[nH]c2ccccc2c1/C=N/NC(=O)C1CC1(c1ccccc1)c1ccccc1 (centres undefined)	> 10 µM (inactive)	
O=C(Cn1c(C(F)(F)F)nc2ccccc21)N=Nc1c(O)[nH]c2ccc(Br)cc12	> 10 µM (inactive)	
CC(C)(C)c1ccc(-c2noc(CCC(N)=O)n2)cc1		> 6.80
O=C1NCN(c2ccccc2)C12CCN(CCCC(c1ccc(F)cc1)c1ccc(F)cc1)CC2	7.76 µM (inactive)	
CCOC(=O)c1c(/N=C/c2c(O)n(-c3cccc(C)c3)c(=O)[nH]c2=O)sc2c1CCCC2		5.62
O=C(NC1CCCCC1)C(c1ccc(F)cc1)N(Cc1ccccc1)C(=O)CN1C(=O)c2ccccc2S1(=O)=O (centres undefined)		5.31
CCOC(=O)/C=C/S(=O)(=O)c1ccc(NC(C)=O)cc1		5.32
CC1=CC2/C=C(\C)CCC(O)C(O)/C=C/C(=O)C23C(=O)NC(CC(C)C)C3C1C (centres undefined)	9.69 µM (inactive)	
Cc1cccc(C)c1NC(=O)COc1ccccc1C(=O)Nc1ccc(Br)cn1	> 10 µM (inactive)	
CCOC(=O)c1c2ccc(OCC(=O)N/N=C/c3ccc(C)cc3)cc2n2ccccc12	9.52 µM (inactive)	
CCCCS(=O)(=O)/C=C\C=C/S(=O)(=O)CCCC		5.67
COC(=O)c1ccc2c(=O)n(CCCCCC(=O)N3CCN(c4ccccc4)CC3)c(=O)[nH]c2c1	9.65 µM (inactive)	
Cc1ccc(NC(=O)c2nc[nH]c2C(=O)N[C@@H](C)C(=O)OC(C)(C)C)cc1	5.12 µM (inactive)	
CC(=O)Nc1ccc(NC2=Nc3ccccc3N3C2=Nc2c(c(C)nn2-c2ccccc2)C3c2ccccc2)cc1 (centres undefined)		5.37
COc1ccc(C(=O)NNC(=O)c2ccccn2)cc1	3.12 µM (inactive)	
C/C(=N\NC(=O)COc1ccc(C(C)(C)C)cc1)c1ccc(N2CCOCC2)cc1	9.41 µM (inactive)	
CCOc1ccc(C2=C/C(=C/c3cccnc3)C(=O)O2)cc1	9.39 µM (inactive)	
O=c1[nH]c(NNC(=S)NC2CCCCC2)nc2c1C1(CCCC1)Cc1ccccc1-2	4.1 µM (inactive)	
CC(C)Cn1c2c(c(=O)[nH]c1=O)C(C(F)(F)F)(C(F)(F)F)N=C(CCC1CCCCC1)N2		5.63
COc1ccccc1-c1cc(C(F)(F)F)nc(S(=O)(=O)CCCC(=O)NC(C)C)n1	9.35 µM (inactive)	
COc1ccc(/C=C2/C(=O)ON=C2c2ccccc2)cc1OC	> 10 µM (inactive)	
Cn1c(=O)c(C(=O)Nc2ncccc2O)c(O)c2ccccc21	9.46 µM (inactive)	
COc1ccccc1C(=O)Oc1ccc(C(C)C)cc1	> 10 µM (inactive)	

Compound	IC50	pIC50
CCOc1cc(/C=C\[N+](=O)[O-])ccc1OCC(=O)Nc1ccccc1C	4.96 µM (inactive)	
Cc1ccccc1Oc1cc(-n2ncc(Cl)c(Cl)c2=O)ncn1		5.68
CCCCCCN=C(CC)c1c(O)n(CCCC)c(=O)[nH]c1=O	7.59 µM (inactive)	
CN1/C(=C\C=C\C2=[N+](C)c3ccc4ccccc4c3C2(C)C)C(C)(C)c2ccccc21	0.41 µM (inactive)	
COc1ccc(-c2cc(C3CCN(Cc4cccc(C(F)(F)F)c4)CC3)[nH]n2)cc1	4.11 µM (inactive)	
Cc1ccc(-c2nc(-c3ccccn3)no2)cc1		5.35
CCCc1cc(-c2nc(N)ncc2-c2ccc3c(c2)OCCCO3)c(O)cc1OC	8.02 µM (inactive)	
N#C/C(=C\c1ccc([N+](=O)[O-])o1)C(=O)Nc1ccc(F)cc1	> 10 µM (inactive)	
O=C1c2ccc3c4c(ccc(c24)C(=O)N1c1cccc(O)c1)C(=O)N(c1cccc(O)c1)C3=O	9.81 µM (inactive)	
O=C1c2ccccc2C(=O)C1c1nccc2ccccc12	5.41 µM (inactive)	
Cc1cc(/C=N/n2cnnc2)c(C)n1-c1ccc(OCc2ccc(F)cc2)cc1	0.67 µM (inactive)	
CCCCCCSc1nsc(NC(=O)CCC)n1	9.9 µM (inactive)	
O=C(Nc1cc(Cl)ccc1O)c1cc2n(n1)C(C(F)(F)F)CC(c1ccc3c(c1)OCO3)N2 (centres undefined)		5.71
Cc1ccc2nc(NC(=O)C3CCN(S(=O)(=O)c4cc([N+](=O)[O-])ccc4Cl)CC3)sc2c1		5.45
Cc1cc(Cl)ccc1OCC(=O)N[C@@H](Cc1ccccc1)c1nc2ccccc2[nH]1	9.23 µM (inactive)	
COc1ccc(CC(=O)Nc2cccc(-c3nnc(-c4cccc(C)c4)o3)c2)cc1OC	5.17 µM (inactive)	
Cc1ccc(C(=O)N/C(=C\c2ccc(Br)cc2)c2nc(=S)[nH][nH]2)cc1	9.7 µM (inactive)	
Cn1c(-c2cccc(OCc3ccccc3)c2)nc2c1c(=O)[nH]c(=O)n2Cc1ccccc1	> 10 µM (inactive)	
CC(C)(C)c1ccc(C(=O)NC(=S)NNC(=O)c2cccs2)cc1	6.3 µM (inactive)	
CC(=O)N(C1=C(Cl)C(=O)c2ccccc2C1=O)C1CCCCC1	8.08 µM (inactive)	
CCCCc1c(C)nn(-c2nnc3c4ccccc4n(CC)c3n2)c1C	9.73 µM (inactive)	
Cc1ccc(C2(c3ccc(C)cc3)CC2C(=O)Nc2ccc([N+](=O)[O-])cc2O)cc1 (centres undefined)	8.64 µM (inactive)	
